Data on 8 molecules can be found in patent publication US9434719B2, “3-pyrimidin-4-yl-oxazolidin-2-ones as inhibitors of mutant IDH” (NOVARTIS AG, priority 2013, dated 2016).

Common to all, as to format: in vitro ADME
The nature of series [1]: Metabolic stability in liver microsomes, Method II, rat. Conditions: 1 μM test compound, NADPH + UDPGA; for microsomal CLint at 1 μM: male, Sprague-Dawley.
Procedure: The in vitro metabolic stability assay was performed in a 96-deep-well plate with incubation at 37° C. 10 mM DMSO stock solution of the test compound was diluted 1:20 in acetonitrile, followed by an additional 1:10 dilution in 100 mM potassium phosphate buffer (KPi) to yield a final reaction concentration of 1 μM. […] 290 μL of cofactor solution (1.7 mM NADPH, 1.7 mM UDPGA, 3.4 mM MgCl in 100 mM KPi) was added to 200 μL of microsomal protein for a final volume of 490 μL. The reaction was initiated by adding 10 μL of the 50 μM test solution to 490 μL of microsomal protein for a final volume 500 μL enzyme-compound mixture.
UPLC mobile phase A: 0.25% formic acid in 5% methanol; mobile phase B: 0.25% formic acid in 95% water.
A short description of series [2]: Metabolic stability in liver microsomes, Method II, human. Conditions: 1 μM test compound, NADPH + UDPGA. The protocol:
(§1) Determination of Metabolic Stability in Liver Microsomes—Method II
(§2) The in vitro metabolic stability assay was performed in a 96-deep-well plate with incubation at 37° C. 10 mM DMSO stock solution of the test compound was diluted 1:20 in acetonitrile, followed by an additional 1:10 dilution in 100 mM potassium phosphate buffer (KPi) to yield a final reaction concentration of 1 μM. Immediately prior to the start of the experiment, respective animal or human liver microsomes (male Sprague-dawley rat, male CD-1 mouse, or pooled human liver microsomes) were diluted in 100 mM KPi to 1.25 mg/mL liver microsomal protein. 290 μL of cofactor solution (1.7 mM NADPH, 1.7 mM UDPGA, 3.4 mM MgCl in 100 mM KPi) was added to 200 μL of microsomal protein for a final volume of 490 μL. The reaction was initiated by adding 10 μL of the 50 μM test solution to 490 μL of microsomal protein for a final volume 500 μL enzyme-compound mixture.
(§3) At 0, 5, 15 and 30 minute time points in the reaction, reaction aliquots (75 μL) were removed and the reactions were terminated by the addition of 50:50 acetonitrile/methanol solution (75 μL) containing a mass spectrometry internal standard (0.5 μM glyburide). The samples were centrifuged at 4000 RPM for 10 minutes. Supernatants (15 μL aliquots) were transferred to a new plate where each well contains 90 μL of deionized water. The supernatants solution were analyzed by UPLC/MS/MS for quantitation of parent remaining compound under multiple reactions monitoring mode (MRM) in positive mode. The percentage of compound remaining, relative to 0 minutes, was used to estimate in vitro elimination-rate constant (k) which was used to calculate in vitro metabolic clearance rates.
(§4) Analysis of the samples was performed on an ultra-performance liquid chromatography-tandem mass spectrometry (UPLC/MS/MS) system consisting of an AB Sciex Qtrap 5500 mass spectrometer, AB Sciex Turbo V ion source, Waters Acquity Sample Organizer, Waters Acquity Column manager, Waters Acquity Sample manager, and a Waters Acquity Binary Solvent Manager. Chromatographic separation of analyte and internal standard was achieved using a reverse phase C-18 column (50×2.1 mm, 1.7 μm, Acquity UPLC BEH C-18) with the following UPLC mobile phases and elution gradient: […]
(§5) UPLC mobile phase A: 0.25% formic acid in 5% methanol; mobile phase B: 0.25% formic acid in […].
(§6) The injection volume was 5 μL. Compounds were detected using Analyst 1.5.1 software which collects intensity data for all fragments related to the molecular weight of the test compound. After collection of the raw data, the software identifies and integrates the peak of the strongest intensity.
(§7) Each microsomal elimination rate, k, was based on a 4-point elimination curve tested in duplicates. LC-MS/MS raw data for a reaction plate was returned as integrated analyte peak areas for the test compound and internal standard used in the quench solution for the reaction to enable use of analyte:internal standard peak area ratios (PARs) for all data comparisons. The reaction time point (e.g. 0, 5, 15 and 30 minutes) was plotted versus the natural logarithm of percent test compound remaining relative to 0 minutes (based on relative PAR). The slope of this clearance plot, k, was used to calculate the in vitro half-life.
(§8) [formula] The intrinsic clearance value, CLint (expressed as μL/min/mg microsomal protein) calculation is shown below:
(§9) [formula] Where V=the incubation volume (mL) and M=the microsomal protein content in the incubation (mg)
In general terms: Microsomes from liver hold many membrane-bound enzymes, among them those of drug oxidation.

Series [3] is described as follows: Metabolic stability in liver microsomes, Method II, mouse. Conditions: NADPH + UDPGA; for microsomal CLint: 1 μM test compound. The protocol:
as §1, §2, §3, §4, §5, §6, §7, §8, §9

Series [4] is described as follows: Metabolic stability in liver microsomes, Method I, rat. Conditions: male, Sprague-Dawley, rat, liver microsomes, 1 μM test compound.
Procedure: (§10) The in vitro metabolic stability assay was performed in a 96-well glass plate with shaking incubation at 37° C. A 10 mM DMSO stock solution of the test compound was sequentially diluted 1:1000 to yield a final reaction concentration of 1 μM in 50 mM KPi. […] 30 μL of the 10 μM solution containing the test compound was added to 120 μL of microsomal protein for 150 μL enzyme-compound mixture. The reaction was initiated by adding 150 μL of cofactor solution (2 mM NADPH, 4 mM MgCl in 50 mM KPi) to the enzyme-compound mixture, and the final reaction concentrations are listed in the table below.
(§11) At 0, 5, 10 and 30 minute time points in the reaction, reaction aliquots (50 μL) were removed and the reactions were terminated by the addition of acetonitrile (150 μL) containing a mass spectrometry internal standard (1 μM glyburide). The samples were centrifuged and the supernatants analyzed by LC-MS/MS for quantization of remaining compound.
(§12) Analysis of the samples was performed on a high performance liquid chromatography-tandem mass spectrometry (LC/MS) system consisting of a Thermo TSQ Quantum Ultra mass spectrometer, an H-ESI ion source, a CTC-HTS Pal autosampler, and an Agilent LC Pump.
(§13) Mobile phase A consisted of purified water containing 0.01% formic acid. Mobile phase B consisted of acetonitrile containing 0.01% formic acid. The flow rate was 1 mL/min. The injection volume was 10 μL. Compounds were detected using the Thermo QuikQuan software which collects intensity data for all fragments related to the molecular weight of the test compound. After collection of the raw data, the software identifies and integrates the peak of the strongest intensity.
(§14) Each microsomal elimination rate, kmic, was based on a 4-point elimination curve tested in singlet. LC-MS/MS raw data for a reaction plate was returned as integrated analyte peak areas for the test compound and internal standard used in the quench solution for the reaction to enable use of analyte:internal standard peak area ratios (PARs) for all data comparisons. The reaction time point (e.g. 0, 5, 20 or 30 minutes) was plotted versus the natural logarithm of percent test compound remaining relative to 0 minutes (based on relative PAR).
A short description of series [5]: Metabolic stability in liver microsomes, Method I, mouse. Conditions: male, CD-1, 1 μM test compound.
Procedure: as §10, §11, §12, §13, §14
The nature of series [6]: Metabolic stability in liver microsomes, Method I, human. Conditions: pooled liver microsomes, 1 μM test compound.
Procedure: as §10, §11, §12, §13, §14

Counter-ions that a name gives are not always drawn.

Take `C[C@H](Nc1nccc(N2C(=O)OC[C@@H]2CF)n1)c1cn(-c2ccc(F)cc2)cn1` [471 as TFA salt]: the intrinsic metabolic clearance (microsomal CLint) in series [1] was below 7.7 µL/min/mg; in series [2] it was below 7.7 µL/min/mg; in series [3], 14.8 µL/min/mg.

`C[C@H](Nc1ncc(F)c(N2C(=O)OC[C@@H]2CF)n1)c1cn(-c2ccc(F)c(Cl)c2)cn1` [472 as TFA salt]: the values for the microsomal CLint in series [1], in series [2] and in series [3] were 12 µL/min/mg, below 7.7 µL/min/mg and 45.6 µL/min/mg, respectively.

`C[C@H](Nc1nccc(N2C(=O)OC[C@@H]2CF)n1)c1cn(-c2ccc(F)c(F)c2)cn1` [474 as TFA salt]: the results for the intrinsic metabolic clearance (microsomal CLint) in series [1], in series [2] and in series [3] were 24.8 µL/min/mg, below 7.7 µL/min/mg and below 7.7 µL/min/mg, respectively.

As to `C[C@H](Nc1nccc(N2C(=O)OC[C@@H]2[C@H](C)F)n1)c1cn(-c2ccc(Cl)cc2F)cn1` [476 as TFA salt], the microsomal CLint stood at 344 µL/min/mg in series [1], 41.4 µL/min/mg in series [2] and 111 µL/min/mg in series [3].

For the molecule `C[C@H](Nc1nccc(N2C(=O)OC[C@@H]2[C@H](C)F)n1)c1cn(-c2ccc(F)cc2F)cn1` [478 as TFA salt], the microsomal CLint in series [1] came out at 219 µL/min/mg; in series [2], 10.9 µL/min/mg; in series [3], 55.3 µL/min/mg.

`C[C@H](Nc1ncc(F)c(N2C(=O)OC[C@@H]2[C@H](C)F)n1)c1cn(-c2ccc(F)cc2F)cn1` [479 as TFA salt]: the intrinsic metabolic clearance (microsomal CLint) in series [1] was found to be 173 µL/min/mg; in series [2], 11.9 µL/min/mg; in series [3], 116 µL/min/mg.

On to `C[C@H](Nc1nccc(N2C(=O)OC[C@@H]2[C@H](C)F)n1)c1ncc(-c2cccc(C(F)(F)F)c2F)cn1` [Example 467, (R)-3-(2-(((S)-1-(5-(2-fluoro-3-(trifluoromethyl)phenyl)pyrimidin-2-yl)ethyl)amino)pyrimidin-4-yl)-4-((S)-1-fluoroethyl)oxazolidin-2-one], for which the microsomal CLint at 1 μM in series [1] was determined as 85.4 µL/min/mg; in series [4], 75.6 µL/min/mg; in series [5], 275 µL/min/mg; in series [6], 53.3 µL/min/mg.

Turning to `C[C@H](Nc1ncc(F)c(N2C(=O)OC[C@@H]2[C@H](C)F)n1)c1cn(-c2ccc(Cl)cc2F)cn1` [Example 477, (R)-3-(2-(((S)-1-(1-(4-chloro-2-fluorophenyl)-1H-imidazol-4-yl)ethyl)amino)-5-fluoropyrimidin-4-yl)-4-((S)-1-fluoroethyl)oxazolidin-2-one], the microsomal CLint at 1 μM in series [1] was found to be 438 µL/min/mg; in series [2] (pooled liver microsomes), 30.4 µL/min/mg; in series [3] (male, CD-1, 1 μM test compound) it was 167 µL/min/mg.

In general, microsomal CLint refers to a measure of how fast metabolising enzymes remove a compound, apart from limits set by blood flow.
